This passage reports MIC results from ChEMBL document CHEMBL5136988, “Chlororesistoflavins A and B, Chlorinated Benzopyrene Antibiotics Produced by the Marine-Derived Actinomycete Streptomyces sp. Strain EG32” (2022).

In brackets after ≈: the same amount, converted by molar mass.

The test system of one test is Escherichia coli. In words: Antibacterial activity against Escherichia coli LptD4213 assessed as growth inhibition incubated for 20 hrs by CLSI based broth microdilution method. It is filed as functional. Background: In broth dilution the organism is exposed to a series of concentrations in liquid medium.
The subject of the next test is Staphylococcus aureus. In words: Antibacterial activity against methicillin-resistant Staphylococcus aureus TCH1516 assessed as growth inhibition incubated for 20 hrs by CLSI based broth microdilution method. It counts as functional.

By MIC is commonly meant the lowest concentration found to suppress growth.

For `Cc1cc(O)c2c3c1C(=O)C=C1C(C)(C)C(=O)c4c(O)cc(O)c(c4[C@@]13O)C2=O`, the MIC was determined as 64 µg/mL (≈ 163 µM) with Escherichia coli and 0.25 µg/mL (≈ 0.637 µM) in the test with Staphylococcus aureus.
For `Cc1cc(O)c2c3c1C(=O)C=C1C(C)(C)C(=O)c4c(O)c(Cl)c(O)c(c4[C@@]13O)C2=O` the same measures were 128 µg/mL (≈ 300 µM) and 2 µg/mL (≈ 4.69 µM).
Turning to `Cc1cc(O)c2c3c1C(=O)C(Cl)=C1C(C)(C)C(=O)c4c(O)cc(O)c(c4[C@@]13O)C2=O`, the MIC worked out at 32 µg/mL (≈ 75 µM) in the test with Escherichia coli and 0.25 µg/mL (≈ 0.586 µM) in the test with Staphylococcus aureus.
For `Cc1cc(O)c2c3c4c(cc(O)c13)C(C)(C)C(=O)c1c(O)cc(O)c(c1-4)C2=O` [HELIOMYCIN] the same measures were 32 µg/mL (≈ 85 µM) and 0.125 µg/mL (≈ 0.332 µM).
